Tested on: diamondback moth (Plutella xylostella)
Assay: Test Example 1: cabbage seedling spray test against diamondback moth larvae
Type: in vivo
Details: 500 ppm diluted solution sprayed on cabbage seedling, 20 mL/seedling; five second instar larvae; 25° C. for 5 days
Procedure: Thirty-five (35) parts of a mixture of polyoxyethylene alkyl ether sulfate ammonium salt and wet silica (weight ratio of 1:1), 20 parts of the compound A, and 45 parts of water were mixed thoroughly. The resulting mixture was diluted with water containing 0.03 v/v % of Shindain (registered trademark) to prepare a diluted solution containing 500 ppm of the compound A. The diluted solution was sprayed into the cabbage (Brassicae oleracea) seedling (on the developmental stage of the second to third true leaf) that is planted in a container in a ratio of 20 mL/seedling.
Thereafter, the stem and leaf of thereof was cut out and then was installed into the container that was covered with the filter paper. Five second instar larvae of diamondback moth (Plutella xylostella) were released into the container, and the container was allowed to stand at 25° C. for 5 days. Thereafter, the surviving insects were counted, and the mortality was calculated from the following equation, and as a result, the mortality was 100%. Mortality (%)=(1−Number of the surviving insects/5)×100
The test was carried out according to Test Example 1 using the compound B instead of the compound A. As a result, the mortality was 0%.

Row | SMILES | Mortality [%]
1 | CCOC(=O)COC(=O)COc1ncccc1Oc1cc(-n2c(=O)cc(C(F)(F)F)n(C)c2=O)c(F)cc1Cl [Compound A] | 100
2 | COC(=O)COC(=O)COc1ncccc1Oc1cc(-n2c(=O)cc(C(F)(F)F)n(C)c2=O)c(F)cc1Cl [Compound B] | 0

— US12022833B2, “Uracil compound and composition for controlling harmful arthropods comprising the same” (Sumitomo Chemical Company, Limited, priority 2018, dated 2024)
